Assay results published in PubChem BioAssay AID1259407 (Chemical Carcinogenesis Research Information System (CCRIS), 2018).
Activity calls are given as the source filed them. The rule behind the calls is not given here.

Test system: CCRIS mutagenicity, Ames/micronucleus/aberration tests
Experiment: CCRIS mutagenicity studies
[1] = Test System: AMES SALMONELLA TYPHIMURIUM, Strain/Indicator: TA98, Metabolic Activation: NONE, Method: STANDARD PLATE
[2] = Test System: AMES SALMONELLA TYPHIMURIUM, Strain/Indicator: TA98, Metabolic Activation: RAT, LIVER, S-9, AROCLOR 1254, Method: STANDARD PLATE
[3] = Test System: AMES SALMONELLA TYPHIMURIUM, Strain/Indicator: TA100, Metabolic Activation: NONE, Method: STANDARD PLATE
[4] = Test System: AMES SALMONELLA TYPHIMURIUM, Strain/Indicator: TA100, Metabolic Activation: RAT, LIVER, S-9, AROCLOR 1254, Method: STANDARD PLATE
[5] = Test System: AMES SALMONELLA TYPHIMURIUM, Strain/Indicator: TA1535, Metabolic Activation: NONE, Method: STANDARD PLATE
[6] = Test System: AMES SALMONELLA TYPHIMURIUM, Strain/Indicator: TA1535, Metabolic Activation: RAT, LIVER, S-9, AROCLOR 1254, Method: STANDARD PLATE

O=C(O)COc1ccc2ccccc2c1
mutagenic call (Test System: AMES SALMONELLA TYPHIMURIUM, Strain/Indicator: TA97, Metabolic Activation: NONE, Method: STANDARD PLATE): inactive; negative
mutagenic call (Test System: AMES SALMONELLA TYPHIMURIUM, Strain/Indicator: TA97, Metabolic Activation: RAT, LIVER, S-9, AROCLOR 1254, Method: STANDARD PLATE): inactive; negative
mutagenic call [1]: inactive; negative
mutagenic call [2]: inactive; negative
mutagenic call [3]: inactive; negative
mutagenic call [4]: inactive; negative
mutagenic call [5]: inactive; negative
mutagenic call [6]: inactive; negative

NS(=O)(=O)c1cccc2cccnc12
mutagenic call (Test System: AMES SALMONELLA TYPHIMURIUM, Strain/Indicator: TA100, Metabolic Activation: S-9, Method: PREINCUBATION): inactive; negative

O=Cc1c2ccccc2cc2ccccc12
mutagenic call [2]: inactive; negative
mutagenic call [3]: inactive; negative
mutagenic call [4]: inactive; negative

CCc1ccc(/C=C/c2ccc(N)cc2)cc1
mutagenic call [1]: inactive; negative
mutagenic call (Test System: AMES SALMONELLA TYPHIMURIUM, Strain/Indicator: TA98, Metabolic Activation: RAT LIVER S9, AROCLOR, Method: STANDARD PLATE): active; positive
mutagenic call [3]: inactive; negative
mutagenic call (Test System: AMES SALMONELLA TYPHIMURIUM, Strain/Indicator: TA100, Metabolic Activation: RAT, LIVER, S9, AROCLOR, Method: STANDARD PLATE): active; positive

Clc1ccccc1-c1ccccc1
mutagenic call (End Point: In vivo mutagenicity, Test System: Liver, Species: Rat, Strain/Sex: Big Blue/Male, Route: Intraperitoneal): active; positive; statistically significant increase of mutant frequency of liver laci g

CC1OC(OC2CC(O)(CO)Cc3c(O)c4c(c(O)c32)C(=O)c2ccccc2C4=O)C(I)C(O)C1O (stereo not given)
mutagenic call (Test System: AMES SALMONELLA TYPHIMURIUM, Strain/Indicator: TA97A, Metabolic Activation: NONE, Method: STANDARD PLATE): inactive; negative
mutagenic call (Test System: AMES SALMONELLA TYPHIMURIUM, Strain/Indicator: TA97A, Metabolic Activation: RAT, LIVER, S-9, AROCLOR 1254, Method: STANDARD PLATE): inactive; negative
mutagenic call [1]: inactive; negative
mutagenic call [2]: inactive; negative
mutagenic call [3]: inactive; negative
mutagenic call [4]: inactive; negative
mutagenic call (Test System: AMES SALMONELLA TYPHIMURIUM, Strain/Indicator: TA102, Metabolic Activation: NONE, Method: STANDARD PLATE): active; positive
mutagenic call (Test System: AMES SALMONELLA TYPHIMURIUM, Strain/Indicator: TA102, Metabolic Activation: RAT, LIVER, S-9, AROCLOR 1254, Method: STANDARD PLATE): inactive; negative

C[C@H](CCC(=O)NCCS(=O)(=O)O)[C@H]1CC[C@H]2[C@@H]3C[C@H](O)[C@@H]4C[C@H](O)CC[C@]4(C)[C@H]3CC[C@]12C
mutagenic call [1]: inactive; negative
mutagenic call [2]: inactive; negative
mutagenic call [3]: inactive; negative
mutagenic call [4]: inactive; negative
mutagenic call [5]: inactive; negative
mutagenic call [6]: inactive; negative
mutagenic call (Test System: AMES SALMONELLA TYPHIMURIUM, Strain/Indicator: TA1537, Metabolic Activation: NONE, Method: STANDARD PLATE): inactive; negative
mutagenic call (Test System: AMES SALMONELLA TYPHIMURIUM, Strain/Indicator: TA1537, Metabolic Activation: RAT, LIVER, S-9, AROCLOR 1254, Method: STANDARD PLATE): inactive; negative
mutagenic call (Test System: AMES SALMONELLA TYPHIMURIUM, Strain/Indicator: TA1538, Metabolic Activation: NONE, Method: STANDARD PLATE): inactive; negative
mutagenic call (Test System: AMES SALMONELLA TYPHIMURIUM, Strain/Indicator: TA1538, Metabolic Activation: RAT, LIVER, S-9, AROCLOR 1254, Method: STANDARD PLATE): inactive; negative
